# Literature values as cited in PMC5427847, “Epilepsy-associated GRIN2A mutations reduce NMDA receptor trafficking and agonist potency – molecular profiling and functional rescue” (Scientific Reports, 2017).
# Assays:
# D732A-GluN1 = settings: competitive glycine site antagonist
# [1] = system: GluN2A K484 to aspartic acid; settings: K484 to aspartic acid versus wild type
# [2] = system: GluN1 D732 mutated to alanine, co-expressed with GluN2A; settings: receptor remaining on the cell surface
smiles,measurement,setting,value
O=C(O)c1cc(=O)c2c(Cl)cc(Cl)cc2[nH]1 [DCKA],Rescue of mutant receptors trapped within the ER,D732A-GluN1,has been achieved
"N[C@@H](CCC(=O)O)C(=O)O [Glutamate, glutamate]",Reduction of glutamate affinity,[1],6 fold
"NCC(=O)O [Glycine, glycine]",Effect on glycine binding,[1],no measurable effect
same,Reduction in glycine potency,[2],4000 fold
